Test results: patent US7531507B2, “Acylated nonadepsipeptides containing pyridyl alanine residues” (AiCuris GmbH & Co. KG, priority 2004, dated 2009)
≈ marks a conversion by molar mass, not a printed value. Where a name gives a salt, the structure may show the parent alone. Read-outs that look alike come from different tables or passages of the source. Starred links: 1 amine or outer side, 2 acyl side, 3 side chain; linkers in the order of their positions; H or OH if unused. Positions of bridges follow the written chain, without caps; N, C: chain ends. Non-standard residues stand in square brackets, D forms with d. Residues, ends and D or L forms follow the SMILES beside them. *: point of attachment. X3 = CCC(C)(C)C[C@@H](N)C(=O)N[C@@H](Cc1cccnc1)C(=O)N[C@H](C(N)=O)[C@H](O*)c1ccccc1; X2 = CC(C)(C)C[C@@H](N)C(=O)N[C@@H](Cc1cccnc1)C(=O)N[C@H](C(N)=O)[C@H](O*)c1ccccc1; Phe(3R-OH) = O=C([C@@H](N[*:1])[C@H](O[*:3])c1ccccc1)[*:2]; Asn(3S-OH) = NC(=O)[C@@H](O)[C@H](N)C(=O)O; Leu(3R-OH) = CC(C)[C@@H](O)[C@H](N)C(=O)O; dAla(TMS) = C[Si](C)(C)C[C@@H](N)C(=O)O; X1 = CC(C)[C@@H](O)[C@H](C)C(=O)*; 3Pal = N[C@@H](Cc1cccnc1)C(=O)O; aThr = C[C@H](O)[C@H](N)C(=O)O

Experiments:
[1] = test system: Streptococcus pneumoniae G9a; format: cell-based
Description: (§1) Determination of the Minimum Inhibitory Concentration (MIC):
(§2) The MIC is determined in the liquid dilution test in accordance with the NCCLS guidelines. Overnight cultures of Staphylococcus aureus 133, Enterococcus faecalis 27159, E. faecium 4147 and Streptococcus pneumoniae G9a are incubated with the described test substances in a 1:2 dilution series. The MIC determination is carried out with a cell count of 10^5 microbes per ml in Isosensitest medium (Difco, Irvine/USA), with the exception of S. pneumoniae which is tested in BHI broth (Difco, Irvine/USA) with 10% bovine serum with a cell count of 10^6 microbes per ml. The cultures are incubated at 37° C. for 18-24 hours, S. pneumoniae in the presence of 10% CO2.
(§3) The MIC is defined as the lowest concentration of each substance at which visible bacterial growth no longer occurs. The MIC values are reported in μg/ml.

[2] = test system: Staphylococcus aureus 133; format: cell-based
Description: as §1, §2, §3

[3] = test system: E. faecalis ICB 27159; format: cell-based, Enterococcus faecalis
Description: as §1, §2, §3

[4] = test system: E. faecium L4001; format: cell-based, Enterococcus faecium
[5] = Determination of the free fraction (fu) in plasma via Transil or ultrafiltration; format: in vitro ADME, rat
Description: Principle of the Determination of the Free Fraction via Transil:
The method described herein for determining the free fraction (fu) of a test substance is divided into 2 parts:
a) Determination of the Transil®/buffer partitioning ratio (MAbuffer) by incubating the test substance in a Transil® buffer (pH 7.4) dispersion and subsequently determining the concentration in the dispersion and in the buffer supernatant.
b) Determination of the Transil®/plasma partitioning ratio (MAplasma) by incubating the test substance in a Transil® plasma dispersion and subsequently determining the concentration in the dispersion and in the plasma.
The quotient of the two partitioning ratios gives fu.
Where substances are highly protein-bound, the plasma is usually diluted with isotonic phosphate buffer (pH 7.4) and then suspended with Transil®. Determination of fu′ (free fraction in diluted plasma) in this diluted protein solution takes place in analogy to the determination of fu. The free fraction in undiluted plasma is calculated from fu′ and the dilution factor.
Concerning this method, compare also: Schuhmacher, Joachim; Kohlsdorfer, Christian; Buehner, Klaus; Brandenburger, Tim; Kruk, Renate, “High-throughput determination of the free fraction of drugs strongly bound to plasma proteins.” Journal of Pharmaceutical Sciences 2004, 93, 816-830.
Determination of the Membrane Affinity of a Test Substance After Partitioning Between Transil® and Buffer (MAbuffer):
All incubations are carried out in suitable glass vessels, e.g. glass vials, ground-joint test tubes. The total volume is usually 0.5-5 ml, and the Transil® volume is 10-100 μl. If the membrane affinities are expected to be high, the Transil® dispersion can be diluted up to 20 times with phosphate buffer of pH 7.4, e.g. Dulbecco's PBS. Phosphate buffer of pH 7.4 is introduced into the incubation vessels, and the Transil® is pipetted in after thorough mixing. The test substance is pipetted in at a concentration of, for example, 200 ng/ml, n=6. The proportion of organic solvents should be ≦2%. The mixtures are incubated at room temperature i.e. on a mini-shaker at an angle of about 45°, at about 400 rpm for 30 min. The 100% value is determined by taking at least one aliquot of, for example, 100 μl, and the remaining mixture is centrifuged at about 1800 g for about 10 min. […]
The plasma of the species to be investigated is filtered through a semipermeable membrane. The concentration of substance in the filtrate is measured, and the free fraction fU is calculated therefrom. […] The concentration of substance in the ultrafiltrate (Cu, unbound substance concentration) and in the plasma before centrifugation (C; total substance concentration) is measured. The free fraction is calculated by the formula fu (%)=Cu/C*100.

[6] = Isosensitest medium, 10^5 microbes per ml, 37° C., 18-24 hours, trishydrochloride
[7] = Isosensitest medium, 10^5 microbes per ml, 37° C., 18-24 hours

CC[C@H](C)[C@@H]1NC(=O)[C@@H](CCCNC(=N)N)NC(=O)[C@H](CC(C)C)NC(=O)[C@H]([C@H](O)C(C)C)NC(=O)[C@@H](NC(=O)[C@H](Cc2cccnc2)NC(=O)[C@H](N)C[Si](C)(C)C)[C@@H](c2ccccc2)OC(=O)[C@H](CO)NC(=O)[C@H]([C@H](O)C(N)=O)NC(=O)CNC(=O)[C@H]([C@H](C)O)NC1=O [Example 6, (Trimethylsilyl)-D-alanyl-3-(pyridin-3-yl)-L-alanyl-de(1-D-leucyl-2-L-leucyl)lysobactin trishydrochloride] (H-[dAla(TMS)][3Pal][Phe(3R-OH)][Leu(3R-OH)]L[dR]I[aThr]G[Asn(3S-OH)]S; ester 3-C)
MIC S. pneumoniae G9a ([1]; BHI broth with 10% bovine serum, 10^6 microbes per ml, 37° C., 18-24 hours, 10% CO2, trishydrochloride): <0.063 µg/mL | MIC S. aureus 133 [2, 6]: <0.063 µg/mL | MIC E. faecalis ICB 27159 [3, 6]: 1 µg/mL

CC[C@H](C)[C@@H]1NC(=O)[C@@H](CCCNC(=N)N)NC(=O)[C@H](CC(C)C)NC(=O)[C@H]([C@H](O)C(C)C)NC(=O)[C@@H](NC(=O)[C@H](Cc2cccnc2)NC(=O)[C@H](N)C[Si](C)(C)C)[C@@H](c2ccccc2)OC(=O)[C@H](CO)NC(=O)[C@H]([C@H](O)C(N)=O)NC(=O)CNC(=O)[C@H]([C@H](C)O)NC1=O [Example 3, 3-(Trimethylsilyl)-D-alanyl-3-(pyridin-3-yl)-L-alanyl-de(1-D-leucyl-2-L-leucyl)-lysobactin trismethanesulphonate] (H-[dAla(TMS)][3Pal][Phe(3R-OH)][Leu(3R-OH)]L[dR]I[aThr]G[Asn(3S-OH)]S; ester 3-C)
MIC S. aureus 133 [2, 7]: 0.5 µg/mL

CC[C@H](C)[C@H](NC(=O)[C@@H](CCCNC(=N)N)NC(=O)[C@H](CC(C)C)NC(=O)[C@@H](C)[C@H](O)C(C)C)C(=O)N[C@H](C(=O)NCC(=O)N[C@H](C(=O)N[C@@H](CO)C(=O)O[C@H](c1ccccc1)[C@H](NC(=O)[C@H](Cc1cccnc1)NC(=O)[C@H](N)CC(C)(C)C)C(N)=O)[C@H](O)C(N)=O)[C@H](C)O.O=C(O)C(F)(F)F.O=C(O)C(F)(F)F.O=C(O)C(F)(F)F [Example 5, 3-tert-Butyl-D-alanyl-3-(pyridin-3-yl)-L-alanyl-de(1-D-leucyl-2-L-leucyl)lysobactin tristrifluoroacetate, reference compound] (X1-L[dR]I[aThr]G[Asn(3S-OH)]S-X2)
MIC E. faecium L4001 ([4]; L4001): 1 µg/mL | MIC S. pneumoniae G9a ([1]; G9a): 0.5 µg/mL | MIC S. aureus 133 [2]; 133: 0.5 µg/mL | fraction unbound at 30 min ([5]; rat, plasma): 0.086 | MIC E. faecalis ICB 27159 ([3]; ICB 27159): 1 µg/mL

CC[C@H](C)[C@H](NC(=O)[C@@H](CCCNC(=N)N)NC(=O)[C@H](CC(C)C)NC(=O)[C@@H](C)[C@H](O)C(C)C)C(=O)N[C@H](C(=O)NCC(=O)N[C@H](C(=O)N[C@@H](CO)C(=O)O[C@H](c1ccccc1)[C@H](NC(=O)[C@H](Cc1cccnc1)NC(=O)[C@H](N)CC(C)(C)CC)C(N)=O)[C@H](O)C(N)=O)[C@H](C)O.O=C(O)C(F)(F)F.O=C(O)C(F)(F)F.O=C(O)C(F)(F)F [Example 4, 4,4-Dimethyl-D-norleucyl-3-(pyridin-3-yl)-L-alanyl-de(1-D-leucyl-2-L-leucyl)lysobactin tristrifluoroacetate] (X1-L[dR]I[aThr]G[Asn(3S-OH)]S-X3)
MIC S. pneumoniae G9a ([1]; G9a): 0.125 µg/mL | MIC S. aureus 133 [2]; 133: 0.25 µg/mL | fraction unbound at 30 min ([5]; rat, plasma): 0.061 | MIC E. faecalis ICB 27159 ([3]; ICB 27159): 1 µg/mL

CC[C@H](C)[C@@H]1NC(=O)[C@@H](CCCNC(=N)N)NC(=O)[C@H](CC(C)C)NC(=O)[C@H]([C@H](O)C(C)C)NC(=O)[C@@H](NC(=O)[C@H](Cc2cccnc2)NC(=O)[C@H](N)C[Si](C)(C)C)[C@@H](c2ccccc2)OC(=O)[C@H](CO)NC(=O)[C@H]([C@H](O)C(N)=O)NC(=O)CNC(=O)[C@H]([C@H](C)O)NC1=O [Example 8, (Trimethylsilyl)-D-alanyl-3-(pyridin-3-yl)-L-alanyl-de(1-D-leucyl-2-L-leucyl)lysobactin tris-D-tartrate] (H-[dAla(TMS)][3Pal][Phe(3R-OH)][Leu(3R-OH)]L[dR]I[aThr]G[Asn(3S-OH)]S; ester 3-C)
MIC S. aureus 133 [2, 7]: 0.25 µg/mL (≈ 0.186 µM) | MIC E. faecalis ICB 27159 [3, 7]: 2 µg/mL (≈ 1.49 µM)

CC[C@H](C)[C@@H]1NC(=O)[C@@H](CCCNC(=N)N)NC(=O)[C@H](CC(C)C)NC(=O)[C@H]([C@H](O)C(C)C)NC(=O)[C@@H](NC(=O)[C@H](Cc2cccnc2)NC(=O)[C@H](N)C[Si](C)(C)C)[C@@H](c2ccccc2)OC(=O)[C@H](CO)NC(=O)[C@H]([C@H](O)C(N)=O)NC(=O)CNC(=O)[C@H]([C@H](C)O)NC1=O [Example 7, (Trimethylsilyl)-D-alanyl-3-(pyridin-3-yl)-L-alanyl-de(1-D-leucyl-2-L-leucyl)lysobactin tris-L-lactate] (H-[dAla(TMS)][3Pal][Phe(3R-OH)][Leu(3R-OH)]L[dR]I[aThr]G[Asn(3S-OH)]S; ester 3-C)
MIC S. aureus 133 [2, 7]: 0.063 µg/mL (≈ 0.047 µM) | MIC E. faecalis ICB 27159 [3, 7]: 1 µg/mL (≈ 0.745 µM)

CC[C@H](C)[C@@H]1NC(=O)[C@@H](CCCNC(=N)N)NC(=O)[C@H](CC(C)C)NC(=O)[C@H]([C@H](O)C(C)C)NC(=O)[C@@H](NC(=O)[C@H](Cc2cccnc2)NC(=O)[C@H](N)C[Si](C)(C)C)[C@@H](c2ccccc2)OC(=O)[C@H](CO)NC(=O)[C@H]([C@H](O)C(N)=O)NC(=O)CNC(=O)[C@H]([C@H](C)O)NC1=O [Example 2, 3-(Trimethylsilyl)-D-alanyl-3-(pyridin-3-yl)-L-alanyl-de(1-D-leucyl-2-L-leucyl)-lysobactin tristrifluoroacetate] (H-[dAla(TMS)][3Pal][Phe(3R-OH)][Leu(3R-OH)]L[dR]I[aThr]G[Asn(3S-OH)]S; ester 3-C)
MIC E. faecium L4001 [4, 7]: 1 µg/mL (≈ 0.745 µM) | MIC S. pneumoniae G9a ([1]; BHI broth with 10% bovine serum, 10^6 microbes per ml, 37° C., 18-24 hours, 10% CO2): 0.125 µg/mL (≈ 0.0932 µM) | MIC S. aureus 133 [2, 7]: 0.125 µg/mL (≈ 0.0932 µM) | fraction unbound at 30 min ([5]; free fraction in rat plasma, read-out: fu (rat)): 0.123 | MIC E. faecalis ICB 27159 [3, 7]: 0.5 µg/mL (≈ 0.373 µM)
